# Assay results taken from patent publication US20230050846A1, “TREATMENT OF HEPATIC AND CARDIOVASCULAR DISORDERS” (LIFESEARCH, priority 2019, published 2023).
# Where two headings read alike, the source gives them in different places. Peptide text beside a SMILES is read from it. * marks the point of attachment. Palmitoyl = CCCCCCCCCCCCCCCC(=O)*
# Test: Pharmacokinetics in mice (plasma, LC-MS/MS)
# Format: in vivo, mouse
# Conditions: 25 mg/kg; for MRT: read-out: MRT (mean residence time)
# Procedure: The peptide of formula (I) and the peptide of formula (II) were analyzed in mouse EDTA plasma using a validated assay involving trypsin proteolysis and the subsequent analysis of a signature peptide (SEQ ID NO: 3) by liquid chromatography-tandem mass spectrometry (LC-MS/MS). The working solution of unlabeled peptide (SEQ ID NO: 3, 1 mM) was serially diluted in water to obtain 7 standard solutions ranging 0.05-5 μM. Plasma and standard samples (40 μL) were reduced, alkylated and trypsin-digested overnight using the ready-to-use solutions of the ProteinWorks™ eXpress kit (Waters Corporation, Milford, Mass., USA), according to the manufacturer's instructions (except trypsin incubation time optimized to 7 h). The working solution of the labeled proteotypic peptide ([SEQ ID NO: 4]-[^13C6, ^15N4]-K, 1 mM) was used as internal standard (IS) and added to the digestion buffer to a final concentration of 0.5 μM. After digestion, samples were cleaned using 30 mg Oasis HLB 1 cc Cartridges (Waters Corporation). Cartridges were conditioned, equilibrated, loaded, washed and eluted with methanol (1 mL), water (1 mL), samples (˜200 μL), 5% methanol containing 0.1% TFA (1 mL) and 60% methanol containing 0.1% TFA (1 mL), respectively. Eluates were dried under a nitrogen stream, reconstituted with 100 μL of 10% acetonitrile containing 0.1% formic acid, and 10 μL were injected into the LC-MS/MS system. LC-MS/MS analyses were performed on a Xevo® TQD mass spectrometer with an electrospray (ESI) interface and an Acquity H-Class® UPLC™ device (Waters Corporation). Proteotypic peptides were separated over 9 min on an Acquity® BEH C18 column (2.1×100 mm, 1.7 μm, Waters Corporation) held at 60° C. with a linear gradient of mobile phase B (100% acetonitrile) in mobile phase A (5% acetonitrile), each containing 0.1% formic acid, and at a flow rate of 600 μL/min. […] Proteotypic peptides were then detected by the mass spectrometer with the ESI interface operating in the positive ion mode (capillary voltage, 3 kV; desolvatation gas (N2) flow and temperature, 900 L/h and 400° C.; source temperature, 150° C.). The multiple reaction monitoring mode was applied for MS/MS detection (SEQ ID NO: 3, m/z 368.8→536.5, y6^+; [SEQ ID NO: 4]-[^13C6, ^15N4]-K, m/z 372.8→544.4, y6) with cone and collision voltages set at 20 and 14 V, respectively. Data acquisition and analyses were performed with MassLynx® and TargetLynx® software, respectively (version 4.1, Waters Corporation). Chromatographic peak area ratio between unlabeled peptide and IS constituted the detector responses. Standard solutions were used to plot calibration curves for peptide quantification. The linearity was expressed by the mean r^2 which was greater than 0.998 (linear regression, 1/x weighting, origin excluded). […] The peptide of formula (I) and the peptide of formula (II) concentrations were expressed in μM assuming 1 mole of peptide equivalent to 1 mole of the peptide of formula (I) and the peptide of formula (II), respectively. Concentrations were then converted to their standard unit (ng/mL) assuming molecular weights of 3540 Da and 3917 Da for the peptide of formula (I) and the peptide of formula (II), respectively.
# Wild-type C57B/L6J male mice were purchased from Janvier Labs (Le Genest Saint Isle, France). Mice were caged in animal rooms under specific pathogen free conditions at the animal facility of Rangueil (Anexplo platform, US006, Toulouse, France) with a light/dark schedule of 12 h/12 h and were fed ad libitum with a normal chow diet (#V1535 R/M-H, Ssniff, Germany). All animal experimental procedures were conducted in accordance with institutional guidelines on animal experimentation approved by the local ethical committee of animal care and are conformed to the guidelines from Directive 2010/63/EU of the European Parliament on the protection of animals used for scientific purposes or the NIH guideline. […]
# [1] = male, C57B/L6J, mouse, plasma, sc
# [2] = male, C57B/L6J, mouse, plasma, sc, sc
# [3] = male, C57B/L6J, mouse, plasma, sc, sc, read-out: t1/2lbd1 (distribution half-life) (converted)
# [4] = male, C57B/L6J, mouse, plasma, sc, sc, read-out: t1/2lbdz (elimination half-life) (converted)
Compound,AUC [1] [ng·h/mL],Cmax [1] [ng/mL],Tmax [1] [min],MRT [2] [min],half-life [3] [min],half-life [4] [min],Cl (total plasma clearance) (sc) [mL/min/kg],Vd (volume of distribution) (sc) [L/kg],"AUC (male, C57B/L6J, mouse, plasma, iv) [ng·h/mL]","MRT (male, C57B/L6J, mouse, plasma, iv, iv) [min]","half-life (male, C57B/L6J, mouse, plasma, iv, iv, read-out: t1/2lbd1 (distribution half-life) (converted)) [min]","half-life (male, C57B/L6J, mouse, plasma, iv, iv, read-out: t1/2lbdz (elimination half-life) (converted)) [min]","clearance (male, C57B/L6J, mouse, plasma, iv, read-out: Cl (total plasma clearance) (converted)) [mL/min/kg]","Vd (male, C57B/L6J, mouse, plasma, iv, read-out: Vd (volume of distribution)) [L/kg]"
"CCCCCCCCCCCCCCCC(=O)NCCCC[C@H](NC(=O)[C@H](CCC(=O)O)NC(=O)[C@H](CCCNC(=N)N)NC(=O)[C@H](CO)NC(=O)[C@H](CCC(N)=O)NC(=O)[C@H](C)NC(=O)[C@H](CCCNC(=N)N)NC(=O)[C@H](Cc1ccccc1)NC(=O)[C@H](Cc1ccc(O)cc1)NC(=O)[C@H](CCCNC(=N)N)NC(=O)[C@H](CCC(=O)O)NC(=O)[C@H](CCC(=O)O)NC(=O)[C@H](CCC(=O)O)NC(=O)[C@H](C)NC(=O)[C@H](CCC(N)=O)NC(=O)[C@H](CCC(=O)O)NC(=O)[C@H](CCCNC(=N)N)NC(=O)[C@H](CCCCN)NC(=O)CNC(=O)[C@H](Cc1ccccc1)NC(=O)[C@H](C)NC(=O)CNC(=O)CNC(=O)[C@H](C)NC(=O)[C@H](CCC(=O)O)NC(=O)[C@H](CCCNC(=N)N)NC(=O)[C@@H](NC(=O)[C@H](CO)NC(=O)CNC(=O)[C@H](C)NC(=O)CNC(=O)[C@H](CCCNC(=N)N)NC(C)=O)[C@@H](C)CC)C(N)=O [peptide of formula (II), CH3CO-[SEQ ID NO: 1]-K-[palmitoyl]-NH2] (Ac-RGAGSIREAGGAFGKREQAEEERYFRAQSREK(Palmitoyl)-NH2)",211000,25600,240,349,125,752,0.83,1,,,,,,
"Ac-RGAGSIREAGGAFGKREQAEEERYFRAQSRE-NH2 [peptide of formula (I), CH3CO-[SEQ ID NO: 1]-NH2]",6140,8290,15,33,11.4,12.6,,0.5,13300,8.4,3.6,15.6,31.7,0.7
